In general, IC50 refers to the concentration at which inhibition is half-maximal. The low end stands for greater potency in that assay, the high end for weaker potency in that assay.

One experiment concerns Gli-Luc/MEF cells. As to the kind of experiment: Gli-Luc/MEF assay. The following applies: Shh-stimulated luciferase, 48 hours. It counts as cell-based, mouse. The procedure, abridged: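 Mouse embryonic fibroblasts from Gli-Luc transgenic mice (luciferase under Gli response element) dosed with compounds (final […], 3-fold series), then stimulated with recombinant mouse Shh at final 2 μg/mL. After 48 h at 37 °C, luminescence read by Bright-Glo; IC50 from inhibition of Shh-induced signal.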

Another experiment has as its target human Smo (Homo sapiens (Human), UniProt Q99835). The experiment can be described thus: Smo radioligand competition binding assay. The following applies: for inhibition at 0.05 µM: read-out: Smo % inh. @ 0.05 μM. The method, boiled down: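 Membranes from HEK293 cells expressing surface human Smo 181-781 (40 μg protein/well) incubated 2 h at room temperature with test compound and tritiated Smo antagonist (3 nM), pH 7.5 Tris buffer; filtration and scintillation counting. Non-specific binding defined with 30 μM cold antagonist; IC50 from four-parameter sigmoidal fit.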
On the technique in general: Loss of bound radioactivity is the signal in a displacement assay; it reports binding, not function.

human Smo, sequence (Q99835 181-787): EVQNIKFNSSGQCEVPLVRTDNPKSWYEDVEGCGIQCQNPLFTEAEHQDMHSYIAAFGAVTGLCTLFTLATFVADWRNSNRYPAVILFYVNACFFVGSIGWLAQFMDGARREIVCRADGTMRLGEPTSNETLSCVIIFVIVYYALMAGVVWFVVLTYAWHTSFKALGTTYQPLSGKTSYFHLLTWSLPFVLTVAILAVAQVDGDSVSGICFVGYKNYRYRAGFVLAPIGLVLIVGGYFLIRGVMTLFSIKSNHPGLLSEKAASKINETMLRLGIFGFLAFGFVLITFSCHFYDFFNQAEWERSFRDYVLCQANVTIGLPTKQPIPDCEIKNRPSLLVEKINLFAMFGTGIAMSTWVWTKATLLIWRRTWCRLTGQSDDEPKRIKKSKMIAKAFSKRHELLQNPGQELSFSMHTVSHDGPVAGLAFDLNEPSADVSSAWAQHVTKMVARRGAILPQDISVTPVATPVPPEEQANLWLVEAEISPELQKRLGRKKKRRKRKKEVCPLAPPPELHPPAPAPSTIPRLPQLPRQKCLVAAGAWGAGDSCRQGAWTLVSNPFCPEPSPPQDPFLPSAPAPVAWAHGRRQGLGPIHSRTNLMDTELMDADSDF

Regarding `CCN(CC)C(=O)COC1CCN(c2cc(-c3ncccc3C)c(Cl)cn2)CC1` [Example A-41, 2-{[1-(5′-chloro-3-methyl-2,4′-bipyridin-2′-yl)piperidin-4-yl]oxy}-N,N-diethylacetamide], the IC50 was found to be 28.5 nM in the experiment on Gli-Luc/MEF cells (Mus musculus, MEF) and 131 nM on human Smo. In addition, the inhibition at 0.05 µM on human Smo (0.05 μM test compound) came out at 82.3%.
The corresponding values for `Cc1cnc(-c2cc(N3CCN(C(=O)CCS(C)(=O)=O)CC3)ncc2F)c(C)c1` [Example A-142, 1-[4-(5′-fluoro-3,5-dimethyl-2,4′-bipyridin-2′-yl)piperazin-1-yl]-3-(methylsulfonyl)propan-1-one] are 16.6 nM, 20.4 nM and 92.7%.
The corresponding values for `Cc1cccnc1-c1cc(N2CCC(C(=O)N[C@H]3CC[C@H](O)CC3)CC2)ncc1Cl` (stereo in doubt) [Example A-71, 1-(5′-chloro-3-methyl-2,4′-bipyridin-2′-yl)-N-(trans-4-hydroxycyclohexyl)piperidine-4-carboxamide] are 39.4 nM, 72.9 nM and 85.7%.
The corresponding values for `CS(=O)(=O)NC1CCN(c2ccc(Cl)c(-c3ccccn3)n2)CC1` [Example A-15, N-[1-(3-chloro-2,2′-bipyridin-6-yl)piperidin-4-yl]methanesulfonamide] are 78.5 nM, 34.3 nM and 83%.
On to `Cc1cccnc1-c1cc(N2CCC(C(=O)NCc3ncc[nH]3)CC2)ncc1Cl` [Example A-54, 1-(5′-chloro-3-methyl-2,4′-bipyridin-2′-yl)-N-(1H-imidazol-2-ylmethyl)piperidine-4-carboxamide], for which the IC50 with Gli-Luc/MEF cells (Mus musculus, MEF) was 55.4 nM; at human Smo, 64.9 nM. Besides, the inhibition at 0.05 µM at human Smo (0.05 μM test compound) was 86.1%.
For `Cc1cccnc1-c1cc(N2CCC(NS(C)(=O)=O)CC2)ncc1Cl` [Example A-8, N-[1-(5′-chloro-3-methyl-2,4′-bipyridin-2′-yl)piperidin-4-yl]methanesulfonamide], in that order: 39.2 nM, 18.7 nM and 92%.
For `CS(=O)(=O)NC1CCN(c2cc(-c3ccc(Cl)cn3)c(Cl)cn2)CC1` [Example A-11, N-[1-(5,5′-dichloro-2,4′-bipyridin-2′-yl)piperidin-4-yl]methanesulfonamide], in that order: 152 nM, 32.9 nM and 78%.
The corresponding values for `Cc1cccnc1-c1cc(N2CCC(C(=O)N[C@@H]3CS(=O)(=O)C[C@H]3O)CC2)ncc1Cl` [Example A-68, 1-(5′-chloro-3-methyl-2,4′-bipyridin-2′-yl)-N-[(3S,4S)-4-hydroxy-1,1-dioxidotetrahydro-3-thienyl]piperidine-4-carboxamide] are 54.4 nM, 120 nM and 88.8%.
Take `Cc1cccnc1-c1cc(N2CCC(C(=O)NCCc3nc4cccnc4n3C)CC2)ncc1Cl` [Example A-73, 1-(5′-chloro-3-methyl-2,4′-bipyridin-2′-yl)-N-[2-(3-methyl-3H-imidazo[4,5-b]pyridin-2-yl)ethyl]piperidine-4-carboxamide]: the IC50 in the experiment on Gli-Luc/MEF cells (Mus musculus, MEF) turned out to be 55.8 nM; on human Smo it was 154 nM. The inhibition at 0.05 µM at human Smo (0.05 μM test compound) was 76.1%.
Take `Cc1cnc(-c2cc(N3CCC(O)CC3)ncc2Cl)c(C)c1` [Example A-94, 1-(5′-chloro-3,5-dimethyl-2,4′-bipyridin-2′-yl)piperidin-4-ol]: the IC50 in the experiment with Gli-Luc/MEF cells (Mus musculus, MEF) is 28.4 nM; on human Smo it was 44.2 nM. Moreover, the inhibition at 0.05 µM on human Smo (0.05 μM test compound) turned out to be 88%.
`Cc1ccc(-c2nc(N3CCN(C(=O)CCS(C)(=O)=O)CC3)ccc2Cl)nc1` [Example A-147, 1-[4-(3-chloro-5′-methyl-2,2′-bipyridin-6-yl)piperazin-1-yl]-3-(methylsulfonyl)propan-1-one] returned an IC50 in the experiment on Gli-Luc/MEF cells (Mus musculus, MEF) of 14.4 nM. Further, the inhibition at 0.05 µM at human Smo (0.05 μM test compound) was determined as 94.7%.
Consider `Cc1cccnc1-c1cc(N2CCC(C(=O)N[C@H]3CC[C@H](CO)CC3)CC2)ncc1Cl` [Example A-89, 1-(5′-chloro-3-methyl-2,4′-bipyridin-2′-yl)-N-[trans-4-(hydroxymethyl)cyclohexyl]piperidine-4-carboxamide], for which the half-maximal inhibitory concentration (IC50) with Gli-Luc/MEF cells (Mus musculus, MEF) came out at 24.4 nM; at human Smo, 28.5 nM. For the same compound, the inhibition at 0.05 µM on human Smo (0.05 μM test compound) came out at 94.6%.
Consider `Cc1cnc(-c2cc(N3CCN(C(=O)CO)CC3)ncc2Cl)c(C)c1` [Example A-102, 2-[4-(5′-chloro-3,5-dimethyl-2,4′-bipyridin-2′-yl)piperazin-1-yl]-2-oxoethanol], for which the IC50 with Gli-Luc/MEF cells (Mus musculus, MEF) stood at 60.1 nM; at human Smo, 57.9 nM. Also, the inhibition at 0.05 µM on human Smo (0.05 μM test compound) worked out at 84%.
For `O=C(CCO)NC1CCN(c2ccc(Cl)c(-c3ccccn3)n2)CC1` [Example A-130, N-[1-(3-chloro-2,2′-bipyridin-6-yl)piperidin-4-yl]-3-hydroxypropanamide], in the experiment on Gli-Luc/MEF cells (Mus musculus, MEF), the midpoint of inhibition, the IC50, lay at 35.5 nM. In addition, on human Smo (0.05 μM test compound), the inhibition at 0.05 µM was 81.3%.
Take “N-[(3-endo)-8-(5′-chloro-3-methyl-2,4′-bipyridin-2′-yl)-8-azabicyclo[3.2.1]oct-3-yl]methanesulfonamide [Example A-124]”: the IC50 in the experiment with Gli-Luc/MEF cells was found to be 25.3 nM; at human Smo it was 100 nM. The “Smo % inh. @ 0.05 μM” value on human Smo (0.05 μM test compound) turned out to be 79.9%.
On to `Cc1cc(F)cnc1-c1cc(N2CCC(NS(C)(=O)=O)CC2)ncc1Cl` [Example A-108, N-[1-(5′-chloro-5-fluoro-3-methyl-2,4′-bipyridin-2′-yl)piperidin-4-yl]methanesulfonamide], for which the IC50 was determined as 11.2 nM in the experiment with Gli-Luc/MEF cells (Mus musculus, MEF) and 20.8 nM on human Smo. For the same compound, at human Smo (0.05 μM test compound), the inhibition at 0.05 µM was found to be 91.5%.
For `CS(=O)(=O)NC1CCN(c2cc(-c3ncccc3Cl)c(Cl)cn2)CC1` [Example A-10, N-[1-(3,5′-dichloro-2,4′-bipyridin-2′-yl)piperidin-4-yl]methanesulfonamide], in that order: 209 nM, 32.1 nM and 75%.
With `O=S(=O)(CCO)NC1CCN(c2ccc(Cl)c(-c3ccccn3)n2)CC1` [Example A-126, N-[1-(3-chloro-2,2′-bipyridin-6-yl)piperidin-4-yl]-2-hydroxyethanesulfonamide], the IC50 was found to be 10.3 nM with Gli-Luc/MEF cells (Mus musculus, MEF) and 15.2 nM at human Smo. The inhibition at 0.05 µM at human Smo (0.05 μM test compound) is 96.1%.
The corresponding values for `Cc1cnc(-c2ccnc(N3CCC(NS(C)(=O)=O)CC3)c2)c(C)c1` [Example A-143, N-[1-(3,5-dimethyl-2,4′-bipyridin-2′-yl)piperidin-4-yl]methanesulfonamide] are 10.4 nM, 12.2 nM and 96.3%.
The corresponding values for `Cc1cnc(-c2cc(N3CCC(NC(=O)CO)CC3)ncc2Cl)c(C)c1` [Example A-113, N-[1-(5′-chloro-3,5-dimethyl-2,4′-bipyridin-2′-yl)piperidin-4-yl]-2-hydroxyacetamide] are 11.7 nM, 55.6 nM and 84%.
For `Cc1cccnc1-c1cc(N2CCC(C(=O)N3CCN(c4ccc(O)nn4)CC3)CC2)ncc1Cl` [Example A-82, 6-(4-{[1-(5′-chloro-3-methyl-2,4′-bipyridin-2′-yl)piperidin-4-yl]carbonyl}piperazin-1-yl)pyridazin-3-ol], in that order: 38.8 nM, 39.2 nM and 92.6%.
`COCC(=O)NC1CCN(c2cc(-c3ncc(C)cc3C)c(Cl)cn2)CC1` [Example A-135, N-[1-(5′-chloro-3,5-dimethyl-2,4′-bipyridin-2′-yl)piperidin-4-yl]-2-methoxyacetamide]: the IC50 in the experiment on Gli-Luc/MEF cells (Mus musculus, MEF) turned out to be 7.6 nM; on human Smo, 40 nM. Besides, the inhibition at 0.05 µM on human Smo (0.05 μM test compound) was 94%.
For `Cc1cnc(-c2cc(N3CCC(CS(C)(=O)=O)CC3)ncc2Cl)c(C)c1` [Example A-98, 5′-chloro-3,5-dimethyl-2′-{4-[(methylsulfonyl)methyl]piperidin-1-yl}-2,4′-bipyridine], in that order: 9.4 nM, 12.4 nM and 96.6%.
The corresponding values for `Cc1cccnc1-c1cc(N2CCC(C(=O)N3CCC(Nc4ccccn4)CC3)CC2)ncc1Cl` [Example A-56, N-(1-{[1-(5′-chloro-3-methyl-2,4′-bipyridin-2′-yl)piperidin-4-yl]carbonyl}piperidin-4-yl)pyridin-2-amine] are 41.6 nM, 106 nM and 80.5%.
Regarding `Cc1cccnc1-c1cc(N2CCC(C(=O)NCC3CCCCO3)CC2)ncc1Cl` (stereo not shown) [Example A-83, 1-(5′-chloro-3-methyl-2,4′-bipyridin-2′-yl)-N-(tetrahydro-2H-pyran-2-ylmethyl)piperidine-4-carboxamide], the IC50 is 48.5 nM with Gli-Luc/MEF cells (Mus musculus, MEF) and 138 nM on human Smo. Further, the inhibition at 0.05 µM on human Smo (0.05 μM test compound) is 78.9%.
For `Cc1cccnc1-c1ccnc(N2CCC(NS(C)(=O)=O)CC2)n1` [Example A-50, N-{1-[4-(3-methylpyridin-2-yl)pyrimidin-2-yl]piperidin-4-yl}methanesulfonamide], in that order: 27.4 nM, 17.7 nM and 97.1%.
The corresponding values for `Cc1cccnc1-c1cc(N2CCN(C(=O)CO)CC2)ncc1Cl` [Example A-25, 2-[4-(5′-chloro-3-methyl-2,4′-bipyridin-2′-yl)piperazin-1-yl]-2-oxoethanol] are 197 nM, 239 nM and 72.1%.
